Reference: patent US10995068B2, “Synthetic sphingolipid-like molecules, drugs, methods of their synthesis and methods of treatment” (The Regents of the University of California, priority 2015, dated 2021)

Legend:
[1] = tested on: murine hematopoietic cell line FL5.12; assay: Viability of FL5.12 cells by vital dye exclusion; type: cell-based; conditions: FL5.12 cells, 48 h, vital dye exclusion; n ≥3; read-out: IC50 (μM) [95% CI]
Method: (§1) Cell culture studies: FL5.12 cells (murine hematopoetic cells originally obtained from Craig Thompson, Memorial Sloan Kettering Cancer Center) were maintained at 0.1-0.5 million/ml in RPMI 1640 (Mediatech) supplemented with 10% fetal calf serum (FCS, Sigma-Aldrich), 10 mM Hepes (Mediatech), 500 pg/ml recombinant IL-3 (cat #575502, Biolegend), 55 μM β-mercaptoethanol (Sigma-Aldrich), 2 mM L-glutamine (Mediatech), and antibiotics. Cells were screened for Mycoplasma every 3 months using the Look-Out Mycoplasma PCR Detection kit (cat #MP0035, Sigma).
IC50 values were calculated using GraphPad Prism (GraphPad Software, Inc, La Jolla, Calif.).

[2] = tested on: CD98 (4F2hc, SLC3A2); assay: Surface CD98 nutrient transporter down-regulation by flow cytometry; type: cell-based, murine; conditions: FL5.12 cells
From the text: (§2) In an exemplified study, nutrient transporter down-regulation was monitored by quantifying surface levels of the amino acid transporter-associated protein, CD98, by flow cytometry. Vacuolation was scored in a range from 0 to […], as determined by a vacuolation assay described in greater detail in the Materials and Methods section below.
as §1
Nutrient transporter expression: Surface CD98 (4F2hc, SLC3A2) expression was measured at 3 h using phycoerythrin (PE)-conjugated rat anti-mouse CD98 antibody (Biolegend, cat #128208); analysis was restricted to viable cells. PE conjugated Rat IgG2a, k (cat #400508, Biolegend) was used as an isotype control. For staining, 200,000 cells were pelleted, re-suspended in 100 μl FACS block (PBS with 10% FCS and 0.05% NaN3) containing 0.25 μL anti-CD98 antibody, incubated on ice for 30 min, washed twice with 1 ml FACS wash (PBS containing 2% FCS and 0.05% NaN3), and analyzed on a BD LSR II flow cytometer. Data was processed with FlowJo software (Treestar).

[3] = tested on: FL5.12 cells; assay: Vacuolation assay; type: cell-based, murine; design: key to Vacuolation score: 0-100 score: (3×%cat3+2×%cat2+1×%cat1)/3; cells graded 0-3 for vacuoles; conditions: FL5.12 cells
Method: as §2
Vacuolation assay: Cells were evaluated at 100× using brightfield microscopy and a Nikon TE2000-S fluorescence microscope equipped with DIC filters. Vacuolation was quantified after a 3 h incubation period in 2.5 μM compound except where otherwise indicated. To calculate a vacuolation score, vacuolation severity in at least 15 individual cells/experiment was assessed qualitatively. Scores were assigned to individual cells as follows: 0=no vacuoles, 1=very small vacuoles, 2=multiple well-defined vacuoles, 3=multiple large vacuoles. To calculate the vacuolation score associated with a compound, the following formula was used: vacuolation score=[(3×% cells in category 3)+(2×% cells in category 2)+(1×% cells in category 1)]/3.
The score is divided by 3 so that a compound with 100% of its cells in category 3 would have a vacuolation score of 100. Three independent experiments were conducted and the vacuolation scores averaged to generate a mean+/−SEM. All cells were scored by one lab member after confirming that a blinded individual scored 5 compounds with similar results.

[4] = tested on: PP2A; assay: PP2A phosphatase activity; type: biochemical, murine; conditions: PP2A immunoprecipitated from FL5.12 cell lysates, phosphopeptide dephosphorylation
From the text: Furthermore, many embodiments of the invention are directed to azacyclic constrained sphingolipid-like molecules inducing internalization of nutrient transporters via a mechanism that activates PP2A. […] Thus, activation of PP2A is very peculiar to certain sphingolipid structures. Activation of PP2A by FTY720 and SH-BC-893 also stimulated vacuolation, and as the PP2A inhibitors calyculin A and SV40 small t antigen, each blocked this effect (FIG. 59C). Of note, YM201636-induced vacuolation was unaffected by PP2A inhibition (FIG. 60B). In addition, inhibiting PP2A restored PIKfyve to the proper location within vacuoles in cells treated with FTY720 or SH-BC-893 (FIG. 57D).
PP2A phosphatase activity. PP2A activity was measured using a PP2A immunoprecipitation phosphatase assay kit (EMD Millipore). Briefly, the catalytic subunit of PP2A was immunoprecipitated from FL5.12 cell lysates with 4 μg anti-PP2A, C subunit. After four washes, the activity of immunoprecipitated PP2A was assessed by dephosphorylation of the phosphopeptide according to the manufacturer's instructions in the presence or absence of C2-ceramide, dihydro-C2-ceramide, FTY720, SH-BC-893, or calyculinA.

[5] = tested on: PC3 prostate cancer cells; assay: Cell Titer Glo proliferation assay in PC3; type: cell-based, human; conditions: Cell Titer Glo, 72 h; Mean ± SEM, n ≥ 3; read-out: IC50 values in prostate cancer cell lines, PC3
Method: (§3) Previously presented compounds 1-4 (FIG. 23), compounds 5-8 (FIG. 28), and control compound FTY720 (FIG. 2) were used to treat the well-established PC3 and DU145 prostate cancer lines (FIG. 29 and Table 1). A Cell Titer Glo assay was performed to measure proliferation of the cancer lines.
(§4) Cell culture studies: Sup-B15 cells are maintained at 2-3 million/mL in RPMI 1640 (Mediatech) supplemented with 10% fetal calf serum (FCS, Sigma-Aldrich), 10 mM Hepes (Mediatech), 55 μM β-mercaptoethanol (Sigma-Aldrich), 2 mM L-glutamine (Mediatech), and antibiotics. All adherent cells are maintained at 70-80% confluence. Cell are cultured in the following media: PC3 & A549, Ham's F12K (Corning Cell Gro) supplemented with 10% FCS and antibiotics; DU145 cells, MEM (Corning Cell Gro) supplemented with 10% FCS, 1 mM sodium pyruvate (Mediatech), and antibiotics; SW620 & MDA-MB-231, DMEM (Corning Cell Gro) with 10% FCS, 1 mM sodium pyruvate (Mediatech), and antibiotics; Panc-1 cells, DMEM (Corning Cell Gro) supplemented with 10% FCS and antibiotics. All of the above cell lines are available from the ATCC.
(§5) Viability assays: Cell Titer Glo assays (Cell Titer Glo Luminescent Cell Viability Assay kit, cat #G7571, Promega Corporation) are performed in clear bottom 96-well black cell culture plates (cat #655090, Greiner Bio-One, NC, USA). After plating at 1,000 cells/well in volume of 100 μl, cells are left undisturbed for at least 24 h before drug addition. After 72 h, cells are prepared for analysis by adding 10 μl of 0.1% Triton-X100 in PBS with shaking for 1 min at room temperature (RT). Cell Titer-Glo cell lysis reagent (20 μl) is then added followed by 1 min of shaking and a 10 min incubation in the dark at RT. Luminescence is detected using an IVIS imaging system (IVIS Lumina II, Perkin Elmer, USA). […] IC50s are determined using GraphPad Prism (GraphPad Software, Inc, La Jolla, Calif.). SupB-15 viability was determined by flow cytometry. Cell Titer Glo assays were performed with the other cell lines.

[6] = tested on: DU145 prostate cancer cells; assay: Cell Titer Glo proliferation assay in DU145; type: cell-based, human; conditions: 72 h, Mean ± SEM, n ≥ 3, read-out: IC50 values in prostate cancer cell lines, DU145
Method: as §3, §4, §5

[7] = tested on: PC3 prostate cancer cells; assay: Cell viability by vital dye exclusion and flow cytometry in PC3; type: cell-based, human; conditions: vital dye exclusion (DAPI) and flow cytometry, 72 h
Method: Thus, to determine whether analogues in accordance with embodiments of the invention are cytotoxic, studies were conducted using vital dye exclusion and flow cytometry (Table 2).
as §5

[8] = tested on: Colon (SW-620) cancer cell line; assay: IC50 in cancer cell lines (Table 3), colon; type: cell-based, human; conditions: Mean ± SEM, n ≥ 3
Method: (§6) Having observed a suitable potency of some embodiments of the invention, including, at least with compounds 3-6, 14 in prostate cancer cell lines, other cancer cell lines were tested with these compounds. […] Compounds that were active in prostate cancer cell lines also killed BCR-Abl-positive leukemia cells with similar potency to FTY720.
as §4, §5

[9] = tested on: Lung (A-549) cancer cell line; assay: IC50 in cancer cell lines (Table 3), lung; type: cell-based, human; conditions: Mean ± SEM, n ≥ 3
Method: as §6, §4, §5

[10] = tested on: Pancreas (PANC-1) cancer cell line; assay: IC50 in cancer cell lines (Table 3), pancreas; type: cell-based, human; conditions: Mean ± SEM, n ≥ 3
Method: as §6, §4, §5

[11] = tested on: Breast (MDA-MB-231) cancer cell line; assay: IC50 in cancer cell lines (Table 3), breast; type: cell-based, human; conditions: Mean ± SEM, n ≥ 3
Method: as §6, §4, §5

[12] = tested on: Leukemia (SupB-15) cells; assay: IC50 in cancer cell lines (Table 3), leukemia; type: cell-based, human; conditions: flow cytometry; Mean ± SEM, n ≥ 3
Method: as §6, §4, §5

[13] = molecular target: T1, S1P receptor 1 (Homo sapiens, UniProt P21453); assay: S1P receptor activation in CHO cells, S1P1; type: cell-based; conditions: CHO cells over-expressing human S1P1, 10 min stimulation, Western blot
T1 construct: expressed in transfected cells
From the text: (§7) Phosphorylation may have effects on S1P receptor activity that could cause bradycardia. Bradycardia, the dose-limiting toxicity that prevents the use of FTY720 in cancer patients, stems from FTY720-P's actions on S1P receptors 1 and 3. (Camm, J., et al. (2014) Am. Heart J. 168, 632-644; Cohen, J. A., Chun, J. (2011) Ann. Neurol. 69, 759-777; Sanna, M. G., et al. (2004) J. Biol. Chem. 279, 13839-13848; the disclosures of which are incorporated herein by reference). Phosphorylation by sphingosine kinase may make compounds competent to activate S1P receptors. FTY720, for example, when phosphorylated is known to activate S1P receptors 1 and 3. Because compound 5 could be phosphorylated, the activity of compound 5 and its phosphate 5-P (FIG. 28) on S1P receptors was evaluated (FIG. 32).
(§8) 51P1-5 activation: Chinese hamster ovary (CHO) cells stably over-expressing the different human 51P receptor subtypes are used. S1P1, S1P4 and S1P5 overexpressing CHO cells are cultured in medium containing alpha-MEM supplemented with 10% FBS, 50 μg/ml gentamycin and 0.5 mg/ml G418. S1P2 and S1P3 overexpressing CHO cells are cultured in RPMI containing 10% FBS, 50 μg/ml gentamycin and 0.5 mg/ml G418. Prior to stimulation, cells are rendered serum-free for 24 h. Stimulation is carried out for 10 min in serum-free DMEM containing 0.1 mg/ml of fatty-acid free BSA in the absence or presence of the various compounds or 51P. Protein lysates are prepared using a buffer containing (50 mM Tris pH 7.4, 150 mM NaCl, 10% glycerol, 1% Triton X-100, 2 mM EDTA, 2 mM EGTA, 40 mM β-glycerophosphate, 50 mM sodium fluoride, 10 mM sodium pyrophosphate, 2 mM dithiothreitol, 0.2 mM sodium orthovanadate). Cells are homogenized by one 5 sec burst in a MSE Ultrasonic Disintegrator, centrifuged and taken for protein determination. Equal amounts of protein are separated by SDS-PAGE (10% polyacrylamide gel), transferred to nitrocellulose membranes and subjected to Western blot analysis. Bands were stained using IRDye® secondary antibodies and visualized by the LICOR Odyssey® Fc Imaging system. Antibodies against phospho-Thr202/Tyr204-p42/p44-MAPK and phospho-Ser PKC substrate are from Cell Signaling, Frankfurt am Main, Germany. Polyclonal antisera against total p42 and total p44 were generated and characterized as previously described. (Huwiler, A.; Pfeilschifter, J. Br. J. Pharmacol. 1994, 113, 1455-1463; disclosure of which is incorporated herein by reference).

[14] = molecular target: T2, S1P receptor 2 (Homo sapiens, UniProt O95136); assay: S1P receptor activation in CHO cells, S1P2; type: cell-based; conditions: CHO cells over-expressing human S1P2
T2 construct: expressed in transfected cells
From the text: as §7, §8

[15] = molecular target: T3, S1P receptor 3 (Homo sapiens, UniProt Q99500); assay: S1P receptor activation in CHO cells, S1P3; type: cell-based; conditions: CHO cells over-expressing human S1P3
T3 construct: expressed in transfected cells
From the text: as §7, §8

[16] = molecular target: T4, S1P receptor 4 (Homo sapiens, UniProt O95977); assay: S1P receptor activation in CHO cells, S1P4; type: cell-based; conditions: CHO cells over-expressing human S1P4
T4 construct: expressed in transfected cells
T4 sequence (O95977 1-384): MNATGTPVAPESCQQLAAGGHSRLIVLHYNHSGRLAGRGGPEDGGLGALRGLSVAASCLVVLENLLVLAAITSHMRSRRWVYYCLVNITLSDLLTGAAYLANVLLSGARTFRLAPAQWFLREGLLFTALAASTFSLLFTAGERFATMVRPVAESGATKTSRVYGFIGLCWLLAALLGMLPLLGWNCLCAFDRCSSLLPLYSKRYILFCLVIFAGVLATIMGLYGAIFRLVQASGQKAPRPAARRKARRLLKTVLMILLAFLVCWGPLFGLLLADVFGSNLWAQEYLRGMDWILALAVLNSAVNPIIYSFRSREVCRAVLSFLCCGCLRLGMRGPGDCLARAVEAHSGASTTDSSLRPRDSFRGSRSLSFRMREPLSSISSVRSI
From the text: as §7, §8

[17] = molecular target: T5, S1P receptor 5 (Homo sapiens, UniProt Q9H228); assay: S1P receptor activation in CHO cells, S1P5; type: cell-based; conditions: CHO cells over-expressing human S1P5
T5 construct: expressed in transfected cells
From the text: as §7, §8

T3 sequence (Q99500 whole entry): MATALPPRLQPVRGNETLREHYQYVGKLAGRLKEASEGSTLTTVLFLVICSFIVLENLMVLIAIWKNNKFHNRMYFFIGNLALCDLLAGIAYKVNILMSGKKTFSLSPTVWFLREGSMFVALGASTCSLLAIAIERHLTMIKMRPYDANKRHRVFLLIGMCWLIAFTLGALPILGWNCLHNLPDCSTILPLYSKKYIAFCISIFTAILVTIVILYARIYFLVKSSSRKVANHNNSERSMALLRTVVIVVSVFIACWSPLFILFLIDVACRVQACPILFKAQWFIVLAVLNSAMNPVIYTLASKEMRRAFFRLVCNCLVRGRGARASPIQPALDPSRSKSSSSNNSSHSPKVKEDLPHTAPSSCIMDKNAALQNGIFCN
T5 sequence (Q9H228 whole entry): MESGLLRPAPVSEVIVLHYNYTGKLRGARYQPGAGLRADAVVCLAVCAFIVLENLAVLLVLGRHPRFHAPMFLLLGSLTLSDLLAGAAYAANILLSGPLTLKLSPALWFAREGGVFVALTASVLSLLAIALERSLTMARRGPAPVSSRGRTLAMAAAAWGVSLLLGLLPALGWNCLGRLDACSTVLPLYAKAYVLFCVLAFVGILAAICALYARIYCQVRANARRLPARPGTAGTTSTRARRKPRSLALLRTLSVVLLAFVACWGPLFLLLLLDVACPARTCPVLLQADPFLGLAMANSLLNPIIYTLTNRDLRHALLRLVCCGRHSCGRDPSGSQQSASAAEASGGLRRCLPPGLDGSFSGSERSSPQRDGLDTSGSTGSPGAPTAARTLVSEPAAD
T1 sequence (P21453 whole entry): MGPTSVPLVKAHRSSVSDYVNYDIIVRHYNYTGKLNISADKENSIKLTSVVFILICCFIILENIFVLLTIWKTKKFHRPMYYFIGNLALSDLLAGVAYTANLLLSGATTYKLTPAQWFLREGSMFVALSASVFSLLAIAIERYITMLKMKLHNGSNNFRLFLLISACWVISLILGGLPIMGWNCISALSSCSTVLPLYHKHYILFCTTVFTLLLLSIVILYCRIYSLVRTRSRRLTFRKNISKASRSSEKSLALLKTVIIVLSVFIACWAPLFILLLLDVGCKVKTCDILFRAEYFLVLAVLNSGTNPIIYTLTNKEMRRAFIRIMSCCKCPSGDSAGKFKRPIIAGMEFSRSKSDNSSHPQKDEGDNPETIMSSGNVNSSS
T2 sequence (O95136 whole entry): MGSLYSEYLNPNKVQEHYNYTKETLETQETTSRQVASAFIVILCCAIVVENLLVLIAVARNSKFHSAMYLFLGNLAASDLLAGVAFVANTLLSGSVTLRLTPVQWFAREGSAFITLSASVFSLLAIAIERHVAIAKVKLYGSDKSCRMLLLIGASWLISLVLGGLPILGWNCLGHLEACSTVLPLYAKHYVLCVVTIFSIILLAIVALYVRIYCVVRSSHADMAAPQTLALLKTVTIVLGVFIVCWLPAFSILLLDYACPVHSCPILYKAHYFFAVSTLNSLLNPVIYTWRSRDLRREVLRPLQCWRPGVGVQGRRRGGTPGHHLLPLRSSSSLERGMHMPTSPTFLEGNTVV

CCCCCCCCCCCCC/C=C/[C@@H](O)[C@H](CO)NC(C)=O [Compound 109, C2-ceramide, reference compound]
IC50 [1]: 33 µM | concentration required to cause similar transporter loss ([2]; CD98 loss): 50 µM | % CD98 down-regulation ([2]; surface CD98 at 3 h, flow cytometry, mean ± SEM, n ≥3): 47 ± 3% | Vacuolation score ([3]; 3 h in 2.5 μM compound except where otherwise indicated, mean ± SEM, n ≥3): 0 | vacuolation (in words) ([3]; at any dose / highest dose tested): did not cause vacuolation | PP2A activation [4]: activating PP2A

CCCCCCCCc1ccc([C@@H]2CCN[C@H]2COC)cc1.Cl [Compound 14]
IC50 [5]: 1.9 ± 0.3 µM | IC50 [6]: 5.6 ± 0.1 µM | IC50 [7]: 4.6 ± 0.4 µM | IC50 [8]: 2.7 ± 0.2 µM | IC50 [9]: 7.8 ± 1.8 µM | IC50 [10]: 4.8 ± 0.6 µM | IC50 [11]: 4 µM | IC50 [12]: 7.5 ± 0.4 µM | activation of S1P receptor 1 [13]: not able to activate | activation of S1P receptor 2 [14]: not able to activate | activation of S1P receptor 3 [15]: not able to activate | activation of S1P receptor 4 [16]: not able to activate | activation of S1P receptor 5 [17]: not able to activate
